Test results from patent US20240287076A1, “COMPOUNDS FOR TARGETING DEGRADATION OF BRUTON'S TYROSINE KINASE” (BIOGEN MA INC., priority 2021, published 2024).

Target: T1, BTK (Homo sapiens, UniProt Q06187)
T1 construct: The GM01501.3 cell line endogenously expresses BTK with a HiBiT fusion tag via CRISPR knock-in at its C-terminal region; endogenous in cells; host or cells: GM01501.3 (GM01501 cells engineered by CRISPR knock-in of HiBiT at the BTK locus)
Assay: BTK degradation assay using the HiBiT Method (Nano-Glo HiBiT Lytic Assay, GM01501.3 cells)
Format: cell-based
Details: HiBiT Degradation on GM01501.3 BTK @ 6 hours
Outline: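 Degradation read-out: HiBiT luminescence after lytic reagent addition, giving DC50. Compounds dosed from 10 μM in 11 half-log steps (duplicate) onto GM01501.3 cells, whose endogenous BTK carries a C-terminal HiBiT knock-in tag; 6 h exposure, 37 °C, 5% CO2.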

T1 sequence (Q06187 whole entry, the tested form may be a part): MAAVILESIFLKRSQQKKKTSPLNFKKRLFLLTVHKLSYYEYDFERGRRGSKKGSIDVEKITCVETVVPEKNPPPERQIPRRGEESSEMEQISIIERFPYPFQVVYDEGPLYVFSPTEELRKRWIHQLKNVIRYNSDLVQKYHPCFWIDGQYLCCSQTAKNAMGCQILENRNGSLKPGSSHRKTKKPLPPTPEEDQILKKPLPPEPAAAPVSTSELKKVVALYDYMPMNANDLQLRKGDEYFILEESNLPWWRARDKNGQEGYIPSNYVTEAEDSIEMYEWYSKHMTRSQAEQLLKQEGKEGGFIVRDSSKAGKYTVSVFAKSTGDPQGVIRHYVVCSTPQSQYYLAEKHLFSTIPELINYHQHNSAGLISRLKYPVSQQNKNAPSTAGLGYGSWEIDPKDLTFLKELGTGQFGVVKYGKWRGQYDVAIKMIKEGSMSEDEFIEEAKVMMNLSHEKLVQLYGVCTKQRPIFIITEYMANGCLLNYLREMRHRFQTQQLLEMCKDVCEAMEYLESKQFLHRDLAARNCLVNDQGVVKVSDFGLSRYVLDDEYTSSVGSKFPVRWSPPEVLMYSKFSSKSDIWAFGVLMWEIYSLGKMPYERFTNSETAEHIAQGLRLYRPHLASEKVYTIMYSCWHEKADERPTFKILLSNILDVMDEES

Row | SMILES | DC50
1 | Cn1nc(N2CCC(=O)NC2=O)c2ccc(C3CCN(CCCCc4cc5c(-c6ccc7c(c6)OCCCC7NC(=O)c6noc(C(C)(C)C)n6)ncnn5c4)CC3)cc21 (stereo not shown) [Example 290, 5-(tert-butyl)-N-(8-(6-(4-(4-(3-(2,4-dioxotetrahydropyrimidin-1(2H)-yl)-1-methyl-1H-indazol-6-yl)piperidin-1-yl)butyl)pyrrolo[2,1-f][1,2,4]triazin-4-yl)-2,3,4,5-tetrahydrobenzo[b]oxepin-5-yl)-1,2,4-oxadiazole-3-carboxamide] | < 100 nM
2 | Cc1cc(-c2ncnn3cc(C#CCCN4CCC(c5ccc(C6CCC(=O)NC6=O)cc5)CC4)cc23)ccc1CNC(=O)c1noc(C(C)(C)C)n1 (stereo not shown) [Example 291, 5-(tert-butyl)-N-(4-(6-(4-(4-(4-(2,6-dioxopiperidin-3-yl)phenyl)piperidin-1-yl)but-1-yn-1-yl)pyrrolo[2,1-f] [1,2,4]triazin-4-yl)-2-methylbenzyl)-1,2,4-oxadiazole-3-carboxamide] | 100 to 500 nM
3 | Cc1cc(-c2ncnn3cc(OCCCN4CCC(c5ccc6c(N7CCC(=O)NC7=O)nn(C)c6c5)CC4)cc23)ccc1CNC(=O)N1CC(OC(C)(C)C)C1 [Example 293, 3-(tert-butoxy)-N-(4-(6-(3-(4-(3-(2,4-dioxotetrahydropyrimidin-1(2H)-yl)-1-methyl-1H-indazol-6-yl)piperidin-1-yl)propoxy)pyrrolo[2,1-f][1,2,4]triazin-4-yl)-2-methylbenzyl)azetidine-1-carboxamide] | < 100 nM
4 | Cn1nc(N2CCC(=O)NC2=O)c2ccc(C3CCN(CCCOc4cc5c(-c6ccc7c(c6)OCCCC7NC(=O)c6noc(C(C)(C)C)n6)ncnn5c4)CC3)cc21 (stereo not shown) [Example 294, 5-(tert-butyl)-N-(8-(6-(3-(4-(3-(2,4-dioxotetrahydropyrimidin-1(2H)-yl)-1-methyl-1H-indazol-6-yl)piperidin-1-yl)propoxy)pyrrolo[2,1-f] [1,2,4]triazin-4-yl)-2,3,4,5-tetrahydrobenzo[b]oxepin-5-yl)-1,2,4-oxadiazole-3-carboxamide] | < 100 nM
5 | Cc1cc(-c2ncnn3cc(OC[C@@H](F)CN4CCC(c5ccc6c(N7CCC(=O)NC7=O)nn(C)c6c5)CC4)cc23)ccc1CNC(=O)c1noc(C(C)(C)C)n1 [Example 295, (S)-5-(tert-butyl)-N-(4-(6-(3-(4-(3-(2,4-dioxotetrahydropyrimidin-1(2H)-yl)-1-methyl-1H-indazol-6-yl)piperidin-1-yl)-2-fluoropropoxy)pyrrolo[2,1-f][1,2,4]triazin-4-yl)-2-methylbenzyl)-1,2,4-oxadiazole-3-carboxamide] | < 100 nM
6 | Cc1cc(-c2ncnn3cc(OC[C@@H](F)CN4CCN(c5ccc(NC6CCC(=O)NC6=O)cn5)CC4)cc23)ccc1CNC(=O)c1noc(C(C)(C)C)n1 (stereo partly drawn) [Example 296, 5-(tert-butyl)-N-(4-(6-((2S)-3-(4-(5-((2,6-dioxopiperidin-3-yl)amino)pyridin-2-yl)piperazin-1-yl)-2-fluoropropoxy)pyrrolo[2,1-f][1,2,4]triazin-4-yl)-2-methylbenzyl)-1,2,4-oxadiazole-3-carboxamide] | < 100 nM
7 | Cc1cc(-c2ncnn3cc(N4CCN(CCCCc5ccc6c(N7CCC(=O)NC7=O)nn(C)c6c5)CC4)cc23)ccc1CNC(=O)c1noc(C(C)(C)C)n1 [Example 297, 5-(tert-butyl)-N-(4-(6-(4-(4-(3-(2,4-dioxotetrahydropyrimidin-1(2H)-yl)-1-methyl-1H-indazol-6-yl)butyl)piperazin-1-yl)pyrrolo[2,1-f][1,2,4]triazin-4-yl)-2-methylbenzyl)-1,2,4-oxadiazole-3-carboxamide] | < 100 nM
8 | Cc1cc(-c2ncnn3cc(-c4cnn(CCN5CCN(c6ccc(C7CCC(=O)NC7=O)cn6)CC5)c4)cc23)ccc1CNC(=O)c1noc(C(C)(C)C)n1 (stereo not shown) [Example 298, 5-(tert-butyl)-N-(4-(6-(1-(2-(4-(5-(2,6-dioxopiperidin-3-yl)pyridin-2-yl)piperazin-1-yl)ethyl)-1H-pyrazol-4-yl)pyrrolo[2,1-f] [1,2,4]triazin-4-yl)-2-methylbenzyl)-1,2,4-oxadiazole-3-carboxamide] | < 100 nM
9 | Cc1cc(-c2ncnn3cc(-c4cnn(CCN5CCC(c6ccc7c(C8CCC(=O)NC8=O)nn(C)c7c6)CC5)c4)cc23)ccc1CNC(=O)c1noc(C(C)(C)C)n1 (stereo not shown) [Example 299, 5-(tert-butyl)-N-(4-(6-(1-(2-(4-(3-(2,6-dioxopiperidin-3-yl)-1-methyl-1H-indazol-6-yl)piperidin-1-yl)ethyl)-1H-pyrazol-4-yl)pyrrolo[2,1-f][1,2,4]triazin-4-yl)-2-methylbenzyl)-1,2,4-oxadiazole-3-carboxamide] | < 100 nM
10 | Cc1cc(-c2ccnc3cc(CCCCN4CCC(c5ccc6c(N7CCC(=O)NC7=O)nn(C)c6c5)CC4)nn23)ccc1CNC(=O)c1noc(C(C)(C)C)n1 [Example 300, 5-(tert-butyl)-N-(4-(2-(4-(4-(3-(2,4-dioxotetrahydropyrimidin-1(2H)-yl)-1-methyl-1H-indazol-6-yl)piperidin-1-yl)butyl)pyrazolo[1,5-a]pyrimidin-7-yl)-2-methylbenzyl)-1,2,4-oxadiazole-3-carboxamide] | < 100 nM
